Tests used:
[1] = molecular target: T1, Ribose-5-phosphate isomerase B (Mycobacterium tuberculosis) (UniProt P9WKD7); assay: Competitive inhibition of Mycobacterium tuberculosis RPIB assessed as ratio of Km/Ki using D-ribose-5-phosphate as substrate by Cheng-Prusoff equation analysis
T1 sequence (whole entry): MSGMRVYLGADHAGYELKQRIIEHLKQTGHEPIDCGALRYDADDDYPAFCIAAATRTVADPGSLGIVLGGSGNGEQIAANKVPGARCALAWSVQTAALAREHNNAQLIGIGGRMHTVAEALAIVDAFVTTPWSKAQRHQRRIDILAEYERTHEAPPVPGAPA

[2] = molecular target: T2, Ribose-5-phosphate isomerase B (Escherichia coli (strain K12)) (UniProt P37351); assay: Competitive inhibition of Escherichia coli RPIB assessed as ratio of Km/Ki using D-ribose-5-phosphate as substrate by Cheng-Prusoff equation analysis
T2 sequence (whole entry): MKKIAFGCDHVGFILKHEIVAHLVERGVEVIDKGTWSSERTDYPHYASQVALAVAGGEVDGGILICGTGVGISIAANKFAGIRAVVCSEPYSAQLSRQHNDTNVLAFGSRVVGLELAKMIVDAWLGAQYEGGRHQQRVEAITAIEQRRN

[3] = molecular target: T3, ribose-5-phosphate isomerase (Spinacia oleracea) (UniProt Q8RU73); assay: Competitive inhibition of Spinacia oleracea RPIA assessed as ratio of Km/Ki using D-ribose-5-phosphate as substrate by Cheng-Prusoff equation analysis
T3 sequence (whole entry): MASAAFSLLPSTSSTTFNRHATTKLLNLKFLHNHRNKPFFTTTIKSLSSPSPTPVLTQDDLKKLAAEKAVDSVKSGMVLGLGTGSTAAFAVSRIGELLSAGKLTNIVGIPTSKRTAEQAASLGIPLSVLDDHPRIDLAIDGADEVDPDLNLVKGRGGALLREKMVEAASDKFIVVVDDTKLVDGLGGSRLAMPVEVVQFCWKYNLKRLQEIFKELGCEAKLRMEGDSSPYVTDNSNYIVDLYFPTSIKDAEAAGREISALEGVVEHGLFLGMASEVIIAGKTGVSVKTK

[4] = Selectivity ratio of Km/Ki for Mycobacterium tuberculosis RpiB to Km/Ki for Spinacia oleracea RpiA

O=S(=O)(O)CC[C@H]1OC(O)[C@H](O)[C@@H]1O (some centres not stated)
Ratio [1]: 19
Ratio [2]: 9
Ratio [3]: 26
Selectivity ratio [4]: 0.7

O=C(O)[C@@H](O)[C@@H](O)[C@@H](O)COP(=O)(O)O (single isomer, unassigned)
Ratio [1]: 233
Ratio [3]: 79
Selectivity ratio [4]: 3

O=C(O)C(C[C@H]1OC(O)[C@H](O)[C@@H]1O)C(=O)O (some centres not stated)
Ratio [1]: 6
Ratio [2]: 2
Ratio [3]: 7
Selectivity ratio [4]: 0.8

O=S(=O)(O)OC[C@H]1OC(O)[C@H](O)[C@@H]1O (some centres not stated)
Ratio [1]: 53
Ratio [2]: 18
Ratio [3]: 17
Selectivity ratio [4]: 3.1

CC(C(C(=O)O)C(=O)O)[C@@H](O)[C@@H](O)[C@@H](O)CCC(=O)O (some centres not stated)
Ratio [1]: 7
Ratio [3]: < 4
Selectivity ratio [4]: > 1.7

CC(C(C(=O)O)C(=O)O)[C@@H](O)[C@@H](O)[C@@H](O)CCP(=O)(O)O (some centres not stated)
Ratio [1]: 26
Ratio [3]: < 4
Selectivity ratio [4]: > 6.5

O=C(O)[C@H](O)[C@H](O)[C@H](O)COP(=O)(O)O
Selectivity ratio [4]: 4.5

From ChEMBL document CHEMBL5579804, “Synthesis and kinetic evaluation of phosphomimetic inhibitors targeting type B ribose-5-phosphate isomerase from Mycobacterium tuberculosis” (Bioorg Med Chem Lett, 2024)
